Data reported in patent US20070208069A1, “PHARMACEUTICAL FORMULATIONS OF AN ANHYDROUS CRYSTAL FORM OF 2-(3-FLUORO-4-HYDROXYPHENYL)-7-VINYL-1,3-BENZOXAZOL-5-OL” (Wyeth, priority 2006, published 2007).

Experiments:
Format in all cases: physicochemical
[1] = Dynamic vapor sorption (hygroscopicity); conditions: for DVS gain: 0–90% RH
Source text: Dynamic Vapor Sorption (Allentown, Pa.) was used to measure the hygroscopicity of the anhydrate and monohydrate of the invention (see FIGS. 6 and 7). The step conditions were three hours each at 0%, 30%, 52.5%, 75% and 90% RH, two full cycles.

[2] = Solid-state stability of crystal forms (XRPD, TGA); conditions: for Long term crystal form stability (XRPD, TGA): three months (monohydrate also 40° C. without humidity control)
Procedure: […] At room temperature, humidity was maintained at 0% RH. Humidity was not controlled for the higher temperatures.
The samples were analyzed by XRPD and TGA.
(§1) Non-micronized samples of monohydrate and anhydrate were stored at 40° C./75% RH for three months. The monohydrate was also stored at 40° C. without humidity control. During the three months, the samples were checked after two weeks, one month, two months, and three months.

[3] = Chemical stability on storage (HPLC); conditions: non-micronized, 40° C./75% RH, three months
Procedure: as §1

[4] = Water solubility of the two crystal forms

In the case of `C=Cc1cc(O)cc2nc(-c3ccc(O)c(F)c3)oc12` [Anhydrate, 2-(3-fluoro-4-hydroxyphenyl)-7-vinyl-1,3-benzoxazol-5-ol], the “Hygroscopicity (DVS), in words” value [1] is reported as “largely non-hygroscopic”, the DVS gain [1] is reported as 0.2% gain (0–90% RH) and the “Crystal form stability (XRPD)” value ([2]; micronized, 25° C./60% RH, three months) is reported as “did not transform to the monohydrate”. The “Crystal form stability (XRPD)” value ([2]; micronized, 40° C./75% RH, one month) was “did partially transform to the monohydrate”, the “Crystal form stability (XRPD)” value ([2]; non-micronized, 40° C./75% RH) was “did not show any obvious transformation” and the “Long term crystal form stability (XRPD, TGA)” value ([2]; non-micronized, 40° C./75% RH) was “did not transform”. The “Long term chemical stability (HPLC)” value [3] was “chemically stable”.

In the case of `C=Cc1cc(O)cc2nc(-c3ccc(O)c(F)c3)oc12` [Monohydrate, 2-(3-fluoro-4-hydroxyphenyl)-7-vinyl-1,3-benzoxazol-5-ol], the “Hygroscopicity (DVS), in words” value [1] is reported as “largely non-hygroscopic”, the DVS gain [1] is reported as 0.1% gain (0–90% RH) and the “Medium term stability (XRPD, TGA)” value ([2]; 56° C., humidity not controlled, one week) is reported as “no obvious dehydration”. The “Medium term stability (XRPD, TGA)” value ([2]; 70° C., 1 day) was “no obvious hydration”, the “Medium term stability (XRPD, TGA)” value ([2]; 70° C., 4 days) was “partially dehydrated” and the “Medium term stability (XRPD, TGA)” value ([2]; 70° C., 7 days) was “mostly dehydrated”. The “Short term stability (XRPD)” value ([2]; 70° C., one hour) was “stable”, the “Short term stability (XRPD)” value ([2]; 90° C., one half hour) was “partially dehydrated” and the “Short term stability (XRPD)” value ([2]; 90° C., one hour) was “completely dehydrated”. The “Long term crystal form stability (XRPD, TGA)” value ([2]; non-micronized, 40° C./75% RH) was “did not transform”, the “Medium term stability (XRPD, TGA)” value ([2]; room temperature, 0% RH, one week) was “no obvious dehydration” and the “Water solubility compared between forms, in words” value [4] was “significantly lower solubility than the anhydrate”. For the same molecule, the “Long term chemical stability (HPLC)” value [3] was “chemically stable”.
